This is an account of results in patent publication US9532554B2, “Method for inducing hepatocellular variation, and production method for chimeric non-human animal having humanized liver” (PUBLIC UNIVERSITY CORPORATION YOKOHAMA CITY UNIVERSITY, priority 2011, dated 2017).

This data set concerns the target T1, human CYP2D6 (Homo sapiens, UniProt P10635).
T1 construct: from tissue; host or cells: humanized liver of chimeric mice (transplanted human hepatic cells), in vivo
The data set can be described thus: Debrisoquine metabolism to 4-OHDB in chimeric mice. The data set is classed as in vivo. The following applies: debrisoquine 2.0 mg/kg orally, chimera group vs sham-operated group.

T1 sequence (P10635 whole entry): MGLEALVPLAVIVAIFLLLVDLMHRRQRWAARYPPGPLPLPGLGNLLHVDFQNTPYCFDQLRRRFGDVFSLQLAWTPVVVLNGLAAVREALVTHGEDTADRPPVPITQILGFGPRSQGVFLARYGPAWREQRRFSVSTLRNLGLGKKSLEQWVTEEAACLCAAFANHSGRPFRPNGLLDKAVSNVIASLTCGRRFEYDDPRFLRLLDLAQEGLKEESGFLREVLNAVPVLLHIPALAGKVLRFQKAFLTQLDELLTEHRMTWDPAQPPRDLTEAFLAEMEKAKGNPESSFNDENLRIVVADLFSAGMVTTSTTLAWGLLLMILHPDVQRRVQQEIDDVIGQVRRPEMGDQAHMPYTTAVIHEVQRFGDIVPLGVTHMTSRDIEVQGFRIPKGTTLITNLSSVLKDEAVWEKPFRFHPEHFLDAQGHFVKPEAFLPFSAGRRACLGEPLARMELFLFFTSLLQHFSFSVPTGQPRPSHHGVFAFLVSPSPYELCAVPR
Protocol: Debrisoquine, which serves as a common phenotyping agent for human CYP2D6, is metabolized to 4-hydroxydebrisoquine (4-OHDB) in humans but is negligible in mice.
Debrisoquine was orally administered at a dose of 2.0 mg/kg. The data was obtained 8 hours after the oral administration and is indicated by the mean±SD.

For `N=C(N)N1CCc2ccccc2C1` [debrisoquine, Debrisoquine], the “plasma concentration of 4-OHDB following oral administration of debrisoquine” value was “higher in the chimera group than in the sham-operated group”.
